Measured values taken from US6906198B1, “Antipicornaviral compounds, their preparation and use” (Agouron Pharmaceuticals, Inc., priority 1998, dated 2005).
Where two headings read alike, the source gives them in different places.

Columns and labels:
HRV-14 = experiment: Antirhinoviral H1-HeLa cell culture assay (XTT), HRV-14; assay type: cell-based, human rhinovirus
Method: (§1) Antirhinoviral H1-HeLa Cell Culture Assay
(§2) In this cell protection assay, the ability of compounds to protect cells against HRV infection was measured by the XTT dye reduction method, which is described in Weislow et al., J. Natl. Cancer Inst. 1989, vol. 81, 577-586.
(§3) H1-HeLa cells were infected with HRV-14 at a multiplicity of infection (m.o.i.) of 0.13 (virus particles/cell) or mock-infected with medium only. Infected or mock-infected cells were resuspended at 8×10^5 cells per mL, and incubated with appropriate concentrations of the compounds to be tested. Two days later, XTT/PMS was added to test plates and the amount of formazan produced was quantified spectrophotometrically at 450/650 nm. The EC50 value was calculated as the concentration of compound that increased the percentage of formazan production in compound-treated, virus-infected cells to 50% of that produced by compound-free, mock-infected cells. The 50% cytotoxic dose (CC50) was calculated as the concentration of compound that decreased the percentage of formazan produced in compound-treated, mock-infected cells to 50% of that produced by compound-free, mock-infected cells. The therapeutic index (TI) was calculated by dividing the CC50 value by the EC50 value.
(§4) All strains of human rhinovirus (HRV) for use in this assay were purchased from American Type Culture Collection (ATCC), except for HRV serotype-14 (produced from the infectious cDNA clone constructed by Dr. Robert Rueckert, Institute for Molecular Virology, University of Wisconsin, Madison, Wis.). HRV stocks were propagated and viral assays were performed in H1-HeLa cells (ATCC). Cells were grown in minimal essential medium with 10% fetal bovine serum, available from Life Technologies (Gaithersburg, Md.).
The compounds were tested against control compounds WIN 51711, WIN 52084, and WIN 54954 (obtained from Sterling-Winthrop Pharmaceuticals), Pirodavir (obtained from Janssen Pharmaceuticals), and Pleconaril (prepared according to the method described in Diana et al., J. Med. Chem 1995, vol. 38, 1355). Antiviral data obtained for the test compounds are shown in Tables 1 and 3, where all data are for HRV serotype-14 unless otherwise noted in parentheses.

HRV serotype 1A = experiment: Antirhinoviral H1-HeLa cell culture assay (XTT), HRV-1A; assay type: cell-based, human rhinovirus; details: H1-HeLa cells
Method: as §1, §2, §3, §4
(§5) The compounds were tested against control compounds WIN 51711, WIN 52084, and WIN 54954 (obtained from Sterling-Winthrop Pharmaceuticals), Pirodavir (obtained from Janssen Pharmaceuticals), and Pleconaril (prepared according to the method described in Diana et al., J. Med. Chem 1995, vol. 38, 1355). […]

HRV serotype 10 = experiment: Antirhinoviral H1-HeLa cell culture assay (XTT), HRV-10; assay type: cell-based, human rhinovirus; details: H1-HeLa cells
Method: as §1, §2, §3, §4, §5

[1] = Cytotoxicity in mock-infected H1-HeLa cells (antirhinoviral assay, XTT); assay type: cell-based; details: human, 50% cytotoxic dose
Method: as §3, §4

[2] = Cytotoxicity in uninfected H1-HeLa cells (anticoxsackieviral assay, XTT); assay type: cell-based; details: human; 50% cytotoxic dose, uninfected H1-HeLa cells (Table 4)
Method: Coxsackievirus types A-21 (CAV-21) and B3 (CVB-3) were purchased from American Type Culture Collection (ATCC, Rockville, Md.). Virus stocks were propagated and antiviral assays were performed in H1-HeLa cells (ATCC). Cells were grown in minimal essential medium with 10% fetal bovine serum (Life Technologies, Gaithersburg, Md.).
The ability of compounds to protect cells against either CAV-21 or CVB-3 infection was measured by the XTT dye reduction method. This method is described in Weislow et al., J. Natl. Cancer Inst. 1989, vol. 81, 577-586. H1-HeLa cells were infected with CAV-21 or CVB-3 at a multiplicity of infection (m.o.i.) of 0.025 or 0.075, respectively, or mock-infected with medium only. H1-HeLa cells were plated at 4×10^4 cells per well in a 96-well plate and incubated with appropriate concentrations of the test compound. One day (CVB-3) or two days (CAV-21) later, XTT/PMS was added to test plates and the amount of formazan produced was quantified spectrophotometrically at 450/650 nm. The EC50 was calculated as the concentration of compound that increased the formazan production in compound-treated, virus-infected cells to 50% of that produced by compound-free, uninfected cells. The 50% cytotoxic dose (CC50) was calculated as the concentration of compound that decreased formazan production in compound-treated, uninfected cells to 50% of that produced in compound-free, uninfected cells. The therapeutic index (TI) was calculated by dividing the CC50 by the EC50.

[3] = Cytotoxicity in uninfected MRC-5 cells (anti-echoviral/-enteroviral assay, XTT); assay type: cell-based; details: human, 50% cytotoxic dose
Method: Echovirus type 11 (EV 11) and enterovirus type 70 (EV 70) were purchased from ATCC (Rockville, Md.). Virus stocks were propagated and antiviral assays were performed in MRC-5 cells (ATCC). Cells were grown in minimal essential medium with 10% fetal bovine serum (Life Technologies, Gaithersburg, Md.).
The ability of compounds to protect cells against either EV 11 or EV 70 infection was measured by the XTT dye reduction method (Weislow et al., J. Natl. Cancer Inst. 1989, vol. 81, 577-586). MRC-5 cells were infected with EV 11 or EV 70 at an m.o.i. of 0.003 or 0.004, respectively, or mock-infected with medium only. Infected or uninfected cells were added at 1×10^4 cells per well and incubated with appropriate concentrations of compound. Four days later, XTT/PMS was added to test plates, and the amount of formazan produced was quantified spectrophotometrically at 450/650 nm. The EC50 was calculated as the concentration of compound that increased the formazan production in compound-treated, virus-infected cells to 50% of that produced by compound-free, uninfected cells. The 50% cytotoxic dose (CC50) was calculated as the concentration of compound that decreased formazan production in compound-treated, uninfected cells to 50% of that produced in compound-free, uninfected cells. The therapeutic index (TI) was calculated by dividing the CC50 by the EC50.

[4] = HRV serotype-14, H1-HeLa cells (Table 1), read-out: Cell Protection EC50
[5] = HRV serotype-14, H1-HeLa cells (Table 3), read-out: EC50

| SMILES | EC50 (HRV-14; [4]) [nM] | EC50 (HRV-14; [5]) [nM] | EC50 (HRV serotype 1A) [nM] | EC50 (HRV serotype 10) [nM] | CC50 at 2 days [1] [nM] | CC50 [2] [nM] | CC50 at 4 days [3] [nM] |
| --- | --- | --- | --- | --- | --- | --- | --- |
| CCOC(=O)/C=C/[C@H](CCC(N)=O)NC(=O)[C@H](Cc1ccc(C)cc1)NC(=O)[C@@H](NC(=O)C1SCCS1)C(C)(C)C [(A-15)] | 220 | 220 | 7100 | 2700 | – | – | – |
| CCOC(=O)/C=C/[C@H](CCC(N)=O)NC(=O)[C@H](Cc1ccc(C)cc1)NC(=O)[C@@H](NC(=O)c1ccc[nH]1)C(C)(C)C [(A-16)] | 450 | 450 | 4800 | 4500 | – | – | – |
| CCOC(=O)/C=C/[C@H](C[C@@H]1CCNC1=O)NC(=O)[C@@H](CC(=O)[C@@H](NC(=O)c1cc(C)on1)C(C)C)Cc1ccc(F)cc1 [(B-2), Ethyl-3-{(5′-Methylisoxazole-3′-carbonyl)-L-ValΨ(COCH2)-L-(4-F-Phe)-L-((S)-Pyrrol-Ala)}-E-Propenoate] | – | – | – | – | > 100000 | > 100000 | > 100000 |
